{"source": "paper PMC6332596", "about": "(Journal of Hematology & Oncology, 2019)", "key": {"[1]": {"system": "off-target non-receptor kinases, proteins, GPCR, and ion channels", "parameters": "method as in PMID 28004478", "settings": "cited from earlier work"}, "[2]": {"system": "human tumor xenograft models inoculated with human cancer cell lines derived from colon, lung, liver, or stomach cancers", "parameters": "method as in PMID 28004478", "settings": "cited from earlier work"}, "VEGFR2": {"system": "VEGFR2", "parameters": "method as in PMID 28004478", "settings": "cited from earlier work"}, "c-Kit": {"system": "c-Kit", "parameters": "method as in PMID 28004478", "settings": "cited from earlier work"}, "CSF-1R": {"system": "CSF-1R", "parameters": "method as in PMID 28004478", "settings": "cited from earlier work"}, "[3]": {"system": "advanced solid tumor and lymphoma", "experiment": "Tumor response by RECIST 1.1 in patients", "format": "in vivo, human", "method": "Tumor response was evaluated by the Response Evaluation Criteria in Solid Tumors (RECIST) version 1.1. Tumor response was assessed by computed tomography (CT) and/or magnetic resonance imaging (MRI) scans at screening and every 8 weeks (2 cycles) during the first 12 cycles."}, "VEGFR1": {"system": "VEGFR1", "parameters": "method as in PMID 28004478", "settings": "cited from earlier work"}, "[4]": {"experiment": "Pharmacokinetics of plasma chiauranib after single and multiple oral doses in patients (LC-MS/MS)", "format": "in vivo, human", "method": "Three milliliters of venous blood samples was drawn into heparinized tubes before drug administration as well as at 1, 2, 4, 6, 8, 12, 24, 48, 72, 96, 120, and 144 h post-dose. […] Three milliliters of venous blood samples was drawn into heparinized tubes before administration as well as at 1, 2, 4, 8, 12, and 24 h post the oral dose on day 28. […] Samples were centrifuged immediately at 3600×g for 10 min at 4 °C, and the plasma fractions were separated and stored at − 20 °C until analysis.\nThe intra- and inter-day precisions and accuracies (relative standard deviation, %RSD) were in the range of 1.75–6.33%, and − 7.88–9.00%, respectively. The extraction recovery (relative standard deviation, %RSD) was 1.32–5.16%.\nDescriptive statistics were used for baseline characteristics, safety assessments, pharmacokinetic variables (including Cmax, Tmax, AUC, and t1/2) and exploratory efficacy assessments, including tumor response and time to progression. Continuous variables were summarized with means, standard deviations (SD), medians, minimums, and maximums. Categorical variables were summarized by counts and by percentage of patients in corresponding categories. P values < 0.05 were considered statistically significant. Statistical analyses were performed using SAS® v9.4 (Cary, NC)."}, "[5]": {"settings": "Day28, multiple dose 10 mg once daily (n = 2)"}, "[6]": {"settings": "Day28, multiple dose 20 mg once daily (n = 6)"}, "[7]": {"settings": "Day28, multiple dose 35 mg once daily (n = 3)"}, "[8]": {"settings": "Day28, multiple dose 50 mg once daily (n = 3)"}, "[9]": {"settings": "Day28, multiple dose 65 mg once daily (n = 4)"}, "[10]": {"settings": "human, plasma, oral, 10 mg, Day1, single dose 10 mg (n = 2)"}, "[11]": {"settings": "human, plasma, oral, 10 mg, Day28, multiple dose 10 mg once daily (n = 2)"}, "[12]": {"settings": "human, plasma, oral, 20 mg, Day1, single dose 20 mg (n = 6)"}, "[13]": {"settings": "human, plasma, oral, 20 mg, Day28, multiple dose 20 mg once daily (n = 6)"}, "[14]": {"settings": "human, plasma, oral, 35 mg, Day1, single dose 35 mg (n = 3)"}, "[15]": {"settings": "human, plasma, oral, 35 mg, Day28, multiple dose 35 mg once daily (n = 3)"}, "[16]": {"settings": "human, plasma, oral, 50 mg, Day1, single dose 50 mg (n = 3)"}, "[17]": {"settings": "human, plasma, oral, 50 mg, Day28, multiple dose 50 mg once daily (n = 3)"}, "[18]": {"settings": "human, plasma, oral, 65 mg, Day1, single dose 65 mg (n = 4)"}, "[19]": {"settings": "human, plasma, oral, 65 mg, Day28, multiple dose 65 mg once daily (n = 4)"}}, "note": "“Also recorded” adds a separate entry of the source. Like-named read-outs stand apart in the source and are kept apart here.", "data": [{"compound": "COc1ccc2c(Oc3ccc4c(C(=O)Nc5ccccc5N)cccc4c3)ccnc2c1", "note": "[chiauranib]", "values": [{"measurement": "activity on off-targets", "setting": "[1]", "value": "little activity"}, {"measurement": "activity against human tumor xenograft models", "setting": "[2]", "value": "broad activity"}, {"measurement": "IC50", "setting": "VEGFR2", "value": "single-digit nanomolar range"}, {"measurement": "IC50", "setting": "c-Kit", "value": "single-digit nanomolar range"}, {"measurement": "IC50", "setting": "CSF-1R", "value": "single-digit nanomolar range"}, {"measurement": "patients achieving SD among six with prior anti-angiogenic agents", "setting": "[3]; 6/18 patients pretreated with anti-angiogenic agents", "value": "five"}, {"measurement": "stable disease (SD) as best response", "setting": "[3]; 12 of 18 patients, investigator's assessment", "value": 66.7, "unit": "%"}, {"measurement": "complete or partial response", "setting": "[3]; 18 patients", "value": "No complete or partial responses were observed; also recorded: No partial or complete response was observed"}, {"measurement": "duration of confirmed SD", "setting": "[3]; one patient with DLBCL, 10 mg cohort", "value": 596, "unit": "days"}, {"measurement": "change in the sum of the longest diameters of target lesions at best response", "setting": "[3]; one patient with ovarian cancer (65 mg cohort)", "value": 22.2, "unit": "%"}, {"measurement": "IC50", "setting": "VEGFR1", "value": "single-digit nanomolar range"}, {"measurement": "dose dependence of plasma exposure", "setting": "[4]; 10 to 65 mg, single and multiple dose", "value": "dose proportional and good linear pharmacokinetic profile"}, {"measurement": "Cav", "setting": "[4]; [5]", "value": "174 (9) ng/mL"}, {"measurement": "Ctrough", "setting": "[4]; [5]", "value": "122 (21) ng/mL"}, {"measurement": "DF", "setting": "[4]; [5]", "value": "1.1 (0.4)"}, {"measurement": "Cav", "setting": "[4]; [6]", "value": "257 (64) ng/mL"}, {"measurement": "Ctrough", "setting": "[4]; [6]", "value": "191 (89) ng/mL"}, {"measurement": "DF", "setting": "[4]; [6]", "value": "1.3 (0.6)"}, {"measurement": "Cav", "setting": "[4]; [7]", "value": "490 (336) ng/mL"}, {"measurement": "Ctrough", "setting": "[4]; [7]", "value": "330 (208) ng/mL"}, {"measurement": "DF", "setting": "[4]; [7]", "value": "0.8 (0.4)"}, {"measurement": "Cav", "setting": "[4]; [8]", "value": "604 (235) ng/mL"}, {"measurement": "Ctrough", "setting": "[4]; [8]", "value": "467 (166) ng/mL"}, {"measurement": "DF", "setting": "[4]; [8]", "value": "1.1 (0.3)"}, {"measurement": "Cav", "setting": "[4]; [9]", "value": "1010 (492) ng/mL"}, {"measurement": "Ctrough", "setting": "[4]; [9]", "value": "890 (662) ng/mL"}, {"measurement": "DF", "setting": "[4]; [9]", "value": "1.5 (0.8)"}, {"measurement": "median peak time", "setting": "[4]; after first dose in run-in period, 10-65 mg, range from 1 to 4 h", "value": 2, "unit": "h"}, {"measurement": "increase of trough plasma concentration versus after first administration", "setting": "[4]; continuous once daily dosing", "value": "twofold"}, {"measurement": "Cmax", "setting": "[4]; [10]", "value": 201, "unit": "ng/mL"}, {"measurement": "Tmax", "setting": "[4]; [10]", "value": 2, "unit": "h"}, {"measurement": "AUC(0-t)", "setting": "[4]; human, plasma, oral, 10 mg, Day1, single dose 10 mg (n = 2), read-out: AUC0–24 h", "value": 2000, "unit": "ng·h/mL"}, {"measurement": "AUC(0-t)", "setting": "[4]; human, plasma, oral, 10 mg, Day1, single dose 10 mg (n = 2), read-out: AUC0–144 h", "value": 3580, "unit": "ng·h/mL"}, {"measurement": "Cmax", "setting": "[4]; [11]", "value": 312, "unit": "ng/mL"}, {"measurement": "Tmax", "setting": "[4]; [11]", "value": 2, "unit": "h"}, {"measurement": "AUC(0-t)", "setting": "[4]; human, plasma, oral, 10 mg, Day28, multiple dose 10 mg once daily (n = 2), read-out: AUC0–24 h", "value": 4180, "unit": "ng·h/mL"}, {"measurement": "Cmax", "setting": "[4]; [12]", "value": 354, "unit": "ng/mL"}, {"measurement": "Tmax", "setting": "[4]; [12]", "value": 2, "unit": "h"}, {"measurement": "AUC(0-t)", "setting": "[4]; human, plasma, oral, 20 mg, Day1, single dose 20 mg (n = 6), read-out: AUC0–24 h", "value": 3450, "unit": "ng·h/mL"}, {"measurement": "AUC(0-t)", "setting": "[4]; human, plasma, oral, 20 mg, Day1, single dose 20 mg (n = 6), read-out: AUC0–144 h", "value": 6820, "unit": "ng·h/mL"}, {"measurement": "Cmax", "setting": "[4]; [13]", "value": 517, "unit": "ng/mL"}, {"measurement": "Tmax", "setting": "[4]; [13]", "value": 2, "unit": "h"}, {"measurement": "AUC(0-t)", "setting": "[4]; human, plasma, oral, 20 mg, Day28, multiple dose 20 mg once daily (n = 6), read-out: AUC0–24 h", "value": 6180, "unit": "ng·h/mL"}, {"measurement": "Cmax", "setting": "[4]; [14]", "value": 608, "unit": "ng/mL"}, {"measurement": "Tmax", "setting": "[4]; [14]", "value": 1, "unit": "h"}, {"measurement": "AUC(0-t)", "setting": "[4]; human, plasma, oral, 35 mg, Day1, single dose 35 mg (n = 3), read-out: AUC0–24 h", "value": 5760, "unit": "ng·h/mL"}, {"measurement": "AUC(0-t)", "setting": "[4]; human, plasma, oral, 35 mg, Day1, single dose 35 mg (n = 3), read-out: AUC0–144 h", "value": 11900, "unit": "ng·h/mL"}, {"measurement": "Cmax", "setting": "[4]; [15]", "value": 773, "unit": "ng/mL"}, {"measurement": "Tmax", "setting": "[4]; [15]", "value": 4, "unit": "h"}, {"measurement": "AUC(0-t)", "setting": "[4]; human, plasma, oral, 35 mg, Day28, multiple dose 35 mg once daily (n = 3), read-out: AUC0–24 h", "value": 11800, "unit": "ng·h/mL"}, {"measurement": "Cmax", "setting": "[4]; [16]", "value": 756, "unit": "ng/mL"}, {"measurement": "Tmax", "setting": "[4]; [16]", "value": 1, "unit": "h"}, {"measurement": "AUC(0-t)", "setting": "[4]; human, plasma, oral, 50 mg, Day1, single dose 50 mg (n = 3), read-out: AUC0–24 h", "value": 7420, "unit": "ng·h/mL"}, {"measurement": "AUC(0-t)", "setting": "[4]; human, plasma, oral, 50 mg, Day1, single dose 50 mg (n = 3), read-out: AUC0–144 h", "value": 16400, "unit": "ng·h/mL"}, {"measurement": "Cmax", "setting": "[4]; [17]", "value": 1120, "unit": "ng/mL"}, {"measurement": "Tmax", "setting": "[4]; [17]", "value": 2, "unit": "h"}, {"measurement": "AUC(0-t)", "setting": "[4]; human, plasma, oral, 50 mg, Day28, multiple dose 50 mg once daily (n = 3), read-out: AUC0–24 h", "value": 14500, "unit": "ng·h/mL"}, {"measurement": "Cmax", "setting": "[4]; [18]", "value": 1280, "unit": "ng/mL"}, {"measurement": "Tmax", "setting": "[4]; [18]", "value": 1.5, "unit": "h"}, {"measurement": "AUC(0-t)", "setting": "[4]; human, plasma, oral, 65 mg, Day1, single dose 65 mg (n = 4), read-out: AUC0–24 h", "value": 11000, "unit": "ng·h/mL"}, {"measurement": "AUC(0-t)", "setting": "[4]; human, plasma, oral, 65 mg, Day1, single dose 65 mg (n = 4), read-out: AUC0–144 h", "value": 24800, "unit": "ng·h/mL"}, {"measurement": "Cmax", "setting": "[4]; [19]", "value": 2240, "unit": "ng/mL"}, {"measurement": "Tmax", "setting": "[4]; [19]", "value": 2, "unit": "h"}, {"measurement": "AUC(0-t)", "setting": "[4]; human, plasma, oral, 65 mg, Day28, multiple dose 65 mg once daily (n = 4), read-out: AUC0–24 h", "value": 24200, "unit": "ng·h/mL"}, {"measurement": "half-life", "setting": "[4]; human, plasma, oral, after first dose in run-in period, 10-65 mg, read-out: terminal half-life (t1/2) (converted)", "value": "25.6 ± 6.73", "unit": "h"}]}]}
